Results from patent US5354772A, “Indole analogs of mevalonolactone and derivatives thereof” (Sandoz Pharm. Corp., priority 1993, dated 1994).
Like-named read-outs stand apart in the source and are kept apart here.

Legend:
sterol synthesis = experiment: Test C. In Vivo Cholesterol Biosynthesis Inhibition Test; parameters: species or system rat; conditions: for ED50: Rattus norvegicus, read-out: ED50 (inhibition of sterol synthesis)
Excerpt: Test C. In Vivo Cholesterol Biosynthesis Inhibition Test In vivo studies utilize male Wistar Royal Hart rats weighing 150±20 g. which have been kept for 7-10 days on an altered light cycle (6:30 A.M.-6:30 P.M. dark) housed two per cage and fed powdered Purina Rat Chow and water ad libitum. […] Controls receive vehicle alone. […] Two hours after mid-dark, blood samples are obtained under sodium hexobarbitol anesthesia and the serum separated by centrifugation. […] Inhibition of sterol synthesis is calculated from the reduction in the nCi of sterols formed from test groups compared to controls.

HMG-CoA reductase = target: T1, HMG-CoA reductase (Rattus norvegicus, UniProt P51639); experiment: Test A. In Vitro Microsomal Assay of HMG-CoA Reductase Inhibition; assay type: biochemical; conditions: rat liver microsomes, male Sprague-Dawley rats; read-out: IC50 (50% inhibition of HMG-CoA reductase activity)
T1 construct: the microsomes are the source of the HMG-CoA reductase enzyme; from tissue; host or cells: liver microsomes, male Sprague-Dawley rats (150-225 g)
T1 sequence (P51639 1-887): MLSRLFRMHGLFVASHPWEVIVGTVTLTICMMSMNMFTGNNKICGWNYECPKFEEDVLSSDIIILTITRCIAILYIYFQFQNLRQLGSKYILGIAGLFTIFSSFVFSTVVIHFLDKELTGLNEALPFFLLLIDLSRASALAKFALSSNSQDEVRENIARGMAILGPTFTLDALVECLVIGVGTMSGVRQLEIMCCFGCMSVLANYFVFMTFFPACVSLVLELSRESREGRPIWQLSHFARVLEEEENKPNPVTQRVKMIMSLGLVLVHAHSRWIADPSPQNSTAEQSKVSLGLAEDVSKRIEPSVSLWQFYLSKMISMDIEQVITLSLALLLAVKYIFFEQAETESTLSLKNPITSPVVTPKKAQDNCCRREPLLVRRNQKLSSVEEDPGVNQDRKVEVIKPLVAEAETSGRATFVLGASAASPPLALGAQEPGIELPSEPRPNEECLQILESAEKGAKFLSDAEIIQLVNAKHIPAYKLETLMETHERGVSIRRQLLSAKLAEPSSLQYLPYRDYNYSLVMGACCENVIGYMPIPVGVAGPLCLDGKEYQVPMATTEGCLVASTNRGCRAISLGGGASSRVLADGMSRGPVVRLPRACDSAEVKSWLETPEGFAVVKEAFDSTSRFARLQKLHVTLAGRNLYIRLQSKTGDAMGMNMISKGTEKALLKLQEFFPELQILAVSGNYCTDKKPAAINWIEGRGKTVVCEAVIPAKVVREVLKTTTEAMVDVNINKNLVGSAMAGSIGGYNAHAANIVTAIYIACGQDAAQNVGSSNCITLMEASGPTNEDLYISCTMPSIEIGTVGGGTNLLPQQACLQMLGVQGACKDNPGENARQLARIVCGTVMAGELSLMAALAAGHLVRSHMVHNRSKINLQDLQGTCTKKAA
Description: Test A. In Vitro Microsomal Assay of HMG-CoA Reductase Inhibition:
200 μl. aliquots (1.08-1.50 mg./ml.) of rat liver microsomal suspensions, freshly prepared from male Sprague-Dawley rats (150-225 g. body weight), in Buffer A with 10 mmol. dithiothreitol are incubated with 10 μl. of a solution of the test substance in dimethylacetamide and assayed for HMG-CoA reductase activity as described in Ackerman et al., J. Lipid Res. 18, 408-413 (1977). In the assay the microsomes are the source of the HMG-CoA reductase enzyme which catalyzes the reduction of HMG-CoA to mevalonate. The assay employs a chloroform extraction to separate the product, [^14 C]mevalonolactone, formed by the HMG-CoA reductase reaction from the substrate, [^14 C]HMG-CoA. [^3 H]mevalonolactoneis added as an internal reference. Inhibition of HMG-CoA reductase is calculated from the decrease in specific activity [^14 C/^3 H]mevalonate) of test groups compared to controls.
IC50 is the concentration of the test substance in the assay system
calculated to produce a 50% inhibition of HMG-CoA reductase activity (Test
A) or sterol biosynthesis (Test B) .

[1] = system: Fu5AH rat hepatoma cell line; experiment: Test B. In Vitro Cell Culture Cholesterol Biosynthesis Screen; assay type: cell-based; conditions: Fu5AH cells, 3 hours; for IC50: [14C]acetate incorporation, read-out: IC50 (50% inhibition of sterol biosynthesis)
Description: The cell culture is prepared as follows: Stock monolayer cultures of the Fu5AH rat hepatoma cell line (originally obtained from G. Rothblat; see Rothblat, Lipids 9, 526-535 (1974)) are routinely maintained in Eagle's Minimum Essential Medium (EMEM) supplemented with 10% fetal bovine serum (FBS) in 75 cm.^2 tissue culture flasks. For these studies, when the cultures reach confluence, they are removed by mild enzymatic treatment with 0.25% trypsin in Hanks' balanced salt solution (without calcium and magnesium). After centrifugation of the cell suspension and aspiration of the enzymatic solution, the cell pellet is resuspended in an appropriate volume of media for seeding into 60 mm. tissue culture dishes. The cultures are incubated at 37° C. in an atmosphere of high humidity and 5% carbon dioxide. When the cultures are confluent (approximately 5 days), they are ready for use. The culture media is aspirated from the dishes and replaced with 3 ml. of EMEM supplemented with 5 mg./ml. of delipidized serum protein (DLSP) prepared by the method of Rothblat et al., In Vitro 12, 554-557 (1976). […] Enhanced 3-hydroxy-3-methylglutaryl Coenzyme A reductase (HMG-CoA reductase) activity is measurable in the cells in response to the lack of exogenous sterol. Following approximately 24 hours incubation at 37° C. in the DLSP supplemented media, the assay is initiated by the addition of 3 μCi of [^14 C]acetate and the test substance solubilized in dimethylsulfoxide (DMSO) or distilled water. Solvent controls and compactin-treated controls are always prepared. Triplicate 60 mm. tissue culture dishes are run for each group. After 3 hours incubation at 37° C., the cultures are examined microscopically using an inverted phase contrast microscope. Notations are made of any morphological changes which may have occurred in the cultures. The media is aspirated and the cell layer is gently washed twice with 0.9% sodium chloride solution (saline). The cell layer is then harvested in 3 ml. of 0.9% saline by gentle scraping with a rubber policeman and transferred to a clean glass tube with Teflon lined cap. The dishes are rinsed with 3 ml. of 0.9% saline and rescraped, and the cells are combined with the first harvest. The tubes are centrifuged at 1500 r.p.m. for 10 minutes in an IEC PR-J centrifuge, and the supernatant is aspirated.
The cells are then extracted as follows: One ml. of 100% ethanol is added to the cell pellet followed by sonication for 10 seconds with a "LO" setting of 50 on a Bronwell Biosonik IV. One hundred μl. are taken for protein determination. One ml. of 15% potassium hydroxide (KOH) is added, and the samples are thoroughly vortexed. Saponification is accomplished by heating the ethanol-KOH treated samples at 60° C. for 60 minutes in a water bath. Following dilution of the samples with 2 ml. of distilled water, they are extracted three times with 7 ml. of petroleum ether. The petroleum ether extracts are then washed three times with 2 ml. of distilled water and finally taken to dryness under a stream of nitrogen.
The obtained samples are then analyzed by thin layer chromatography (TLC) as follows: Residues from the petroleum ether extraction are taken up in a small volume of hexane and spotted on silica gel 60 TLC plates (E. Merck). Development of the plates is carried out in a three phase solvent system consisting of 150 parts by volume hexane: 50 parts by volume diethyl ether: 5 parts by volume glacial acetic acid.
Visualization is accomplished in an iodine vapor chamber. The plates are divided into five sections such that each section contains the molecules having the following approximate Rf values: section 1- 0-0.4, section 2- 0.4-0.55, section 3- 0.55-0.7, section 4- 0.7-0.9 and section 5- 0.9-1.0. Section 2 contains the non-saponifiable sterols. The five sections of the TLC plates are scraped into scintillation vials.

[2] = male Wistar Royal Hart rats, serum [14C] sterols

Row | SMILES | IC50 (HMG-CoA reductase) [µM] | IC50 [1] [nM] | ED50 (sterol synthesis; [2]) [mg/kg] | further results
1 | Cn1c(/C=C/[C@@H]2C[C@@H](O)CC(=O)O2)c(-c2ccc(F)cc2)c2ccccc21 (relative stereo) [Example 4 (a), (E)-Trans-6-[2'-[3"-(4'"-fluorophenyl)-1"-methylindol-2"-yl]ethenyl]-4-hydroxy-3,4,5,6-tetrahydro-2H-pyran-2-one] | 3 | 620 | 7 | –
2 | CC(C)n1c(/C=C/[C@@H](O)C[C@@H](O)CC(=O)O)c(-c2ccc(F)cc2)c2ccccc21 (relative stereo) [Example 8, Sodium erythro-(±)-(E)-3,5-dihydroxy-7-[3'-(4"-fluorophenyl)-1'-(1"-methylethyl)indol-2'-yl]hept-6-enoate] | – | 50 | – | ED50 (sterol synthesis): 0.09 mg/kg
3 | CC(C)n1c(/C=C/[C@H](O)C[C@@H](O)CC(=O)O)c(-c2ccc(F)cc2)c2ccccc21 (relative stereo) [Example 9, Sodium threo-(±)-(E)-3,5-dihydroxy-7-[3'-(4"-fluorophenyl)-1'-(1"-methylethyl)indol-2'-yl]hept-6-enoate] | – | 220 | – | ED50 (sterol synthesis): 1.4 mg/kg
4 | Cn1c(/C=C/[C@H](O)C[C@@H](O)CC(=O)O)c(-c2ccc(F)cc2)c2cccc(OCc3ccccc3)c21 (relative stereo) [Example 54] | 464 | – | – | –
5 | Cn1c(CC[C@@H]2C[C@@H](O)CC(=O)O2)c(-c2ccc(F)cc2)c2ccccc21 (relative stereo) [Example 89] | 9.3 | – | – | –
6 | Cn1c(/C=C/[C@H]2C[C@@H](O)CC(=O)O2)c(-c2ccc(F)cc2)c2cccc(OCc3ccccc3)c21 (relative stereo) [Example 102] | > 1000 | – | – | –
7 | CCn1c(/C=C/[C@H]2C[C@@H](O)CC(=O)O2)c(-c2ccc(F)cc2)c2ccccc21 (relative stereo) [Example 111] | – | 190 | – | –
8 | COC(=O)CC(O)CC(O)/C=C/c1c(-c2ccc(F)cc2)c2ccccc2n1C (stereo not drawn) [Example 1, Methyl (E)-3,5-dihydroxy-7-[3'-(4"-fluorophenyl)-1'-methylindol-2'-yl]hept-6-enoate] | 1.7 | 800 | 6.2 | –
9 | Cn1c(/C=C/[C@@H]2C[C@@H](O)CC(=O)O2)c(-c2ccc(F)cc2)c2ccccc21 [Example 10, (E)-Trans-6S-[2'-[3"-(4'"-fluorophenyl)-1"-methylindol-2"-yl]ethenyl]-4R-hydroxy-3,4,5,6-tetrahydro-2H-pyran-2-one] | 1.7 | 420 | – | percentage change of sterol synthesis (sterol synthesis; at 4 mg./kg., male Wistar Royal Hart rats): -47%
10 | Cn1c(/C=C\[C@@H]2C[C@@H](O)CC(=O)O2)c(-c2ccc(F)cc2)c2ccccc21 [Example 12, (Z)-Trans-6S-[2'-[3"-(4'"-fluorophenyl)-1"-methylindol-2"-yl]ethenyl]-4R-hydroxy-3,4,5,6-tetrahydro-2H-pyran-2-one] | 9.1 | – | – | inhibition at 1 µM ([1]; at 1 μmolar, read-out: percentage change (%Δ) of sterol biosynthesis): 16%
11 | CCOC(=O)CC(O)CC(O)/C=C/c1c(-c2ccc(F)cc2)c2ccc(OCc3ccccc3)cc2n1C (stereo not drawn) [Example 21] | – | 200 | 12.1 | –
12 | CCOC(=O)CC(O)CC(O)/C=C/c1c(-c2ccc(F)cc2)c2cc(Cl)ccc2n1C (stereo not drawn) [Example 43] | 9.6 | 740 | – | –
13 | CCC(C)C(=O)OC1CC(C)C=C2C=CC(C)C(CCC3CC(O)CC(=O)O3)C21 (stereo not drawn) [Mevinolin, reference compound] | – | – | – | ED50 (sterol synthesis): 0.41 mg/kg

Further compounds by falling IC50 (HMG-CoA reductase), results first:

Row | IC50 (HMG-CoA reductase) [µM] | IC50 [1] [nM] | SMILES | ED50 (sterol synthesis; [2]) [mg/kg] | further results
14 | 1.66 | 800 | Cn1c(/C=C/C2CC(O)CC(=O)O2)c(-c2ccc(F)cc2)c2ccccc21 (stereo not drawn) [Example 3, (E)-6-[2'-[3"-(4'"-Fluorophenyl)-1"-methylindol-2"-yl]ethenyl]-4-hydroxy-3,4,5,6-tetrahydro-2H-pyran-2-one] | > 10 | –
15 | 1.62 | – | CCOC(=O)CC(O)CC(O)/C=C/c1c(C)c2ccccc2n1-c1ccccc1 (stereo not drawn) [Example 132] | – | percentage change of sterol synthesis (sterol synthesis; at 10 mg./kg., male Wistar Royal Hart rats): -35%; inhibition at 10 µM ([1]; at 10 μmolar, read-out: percentage change (%Δ) of sterol biosynthesis): 71%
16 | 1.3 | 1500 | Cc1c(/C=C/[C@@H]2C[C@@H](O)CC(=O)O2)n(-c2ccccc2)c2ccccc12 (relative stereo) [Example 142] | 6.1 | –
17 | 0.77 | 60 | CC[C@H](C)C(=O)O[C@H]1CCC=C2C=C[C@H](C)[C@H](CC[C@@H]3C[C@@H](O)CC(=O)O3)[C@H]21 [Compactin, reference compound] | 3.5 | –
18 | 0.12 | – | CCOC(=O)CC(O)CC(O)/C=C/c1c(-c2ccc(F)cc2)c2ccccc2n1CC (stereo not drawn) [Example 60] | 0.87 | –
19 | 0.09 | 600 | Cn1c(/C=C/C(O)CC(O)CC(=O)O)c(-c2ccc(F)cc2)c2ccc(OCc3ccccc3)cc21 (stereo not drawn) [Example 23] | – | –
20 | 0.03 | – | Cc1cc(-c2c(/C=C/[C@H]3C[C@@H](O)CC(=O)O3)n(C(C)C)c3ccccc23)ccc1F (relative stereo) [Example 113] | 0.51 | –
21 | 0.012 | 30 | Cc1cc(C)c2c(-c3ccc(F)cc3)c(/C=C/[C@@H](O)C[C@@H](O)CC(=O)O)n(C(C)C)c2c1 (relative stereo) [Example 64] | 0.66 | –
22 | 0.0054 | – | CCOC(=O)CC(O)CC(O)/C=C/c1c(-c2ccc(F)cc2)c2ccc(OCc3ccccc3)cc2n1C(C)C (stereo not drawn) [Example 75] | – | –
23 | 0.005 | – | Cc1cc(C)cc(-c2c(/C=C/[C@@H](O)C[C@@H](O)CC(=O)O)n(C(C)C)c3ccccc23)c1 (relative stereo) [Example 14D, Sodium erythro-(±)-(E)-3,5-dihydroxy-7-[3'-(3",5"-dimethylphenyl)-1'-(1"-methylethyl)indol-2'-yl]hept-6-enoate] | 0.16 | –
